This note sets out measurements from US12565488B2, “Inhibitors of influenza virus replication” (COCRYSTAL PHARMA, INC., priority 2018, dated 2026).

A value given as a limit tells only on which side of the number the result lay.

Broadly, the EC50 is the concentration giving half of the maximal effect.

The first assay has as its system Influenza type A (strain A/PR/8/34, ATCC VR-95). As to the kind of experiment: Influenza antiviral assay: inhibition of virus-induced cytopathic effects (CPE) in MDCK cells, XTT dye reduction. The assay is classed as cell-based. The settings on record: Influenza A (H1N1) replication in MDCK cells, CPE reduction by XTT at 4 days post-infection; read-out: Influenza H1N1 affinity, EC50. (In general: Cytopathic effects are the visible damage that an infection or toxin causes in cultured cells.)
`O=C(NCC1c2ccccc2COc2ccccc21)c1c(O)c(=O)ccn1CC1c2ccccc2COc2ccccc21` (stereo not shown) [Compound 108]: the EC50 was 1 to 10 µM. For `O=C(NCC1c2ccccc2COc2ccccc21)c1c(O)c(=O)ccn1CC1c2ccccc2COc2ccccc21` (stereo not shown) [Compound 50], the EC50 was 1 to 10 µM. For the molecule `O=C(NCC1c2ccccc2COc2ccccc21)c1c(O)c(=O)ccn1CC1c2ccccc2COc2ccccc21` (stereo not shown) [Compound 102], the EC50 is more than 100 µM. For `O=C(NCC1c2ccccc2COc2ccccc21)c1c(O)c(=O)ccn1CC1c2ccccc2COc2ccccc21` (stereo not shown) [Compound 106], the EC50 is more than 100 µM.

The assay is the same for the next values; noted with them: Influenza A virus, H1N1 / PR/8, MDCK, 96 h, Influenza A (H1N1) replication in MDCK cells, CPE reduction by XTT at 4 days post-infection; read-out: Influenza H1N1 affinity, EC50.
As for `O=C(O)c1c(O)c(=O)ccn1NC(c1ccc2ccccc2c1)c1ccc2ccccc2c1` [Compound 100], the EC50 is more than 100 µM. The same measure, in the same setting: the same measure for `CN(C)C(=O)c1c(O)c(=O)ccn1NC1c2ccccc2COc2ccccc21` (stereo not shown) [Compound 5]: more than 100 µM; for `O=C(O)c1c(O)c(=O)ccn1NC1c2ccccc2SCc2c1ccc(Br)c2Cl` (stereo not shown) [Compound 97]: 1 to 10 µM; for `CN(Cc1ccccc1)C(=O)c1c(O)c(=O)ccn1NC1c2ccccc2COc2ccccc21` (stereo not shown) [Compound 6]: 1 to 10 µM. On the same count and under the same terms, the same measure for `O=C(Nc1ccccc1)c1c(O)c(=O)ccn1NC1c2ccccc2COc2ccccc21` (stereo not shown) [Compound 11]: more than 100 µM. The same measure, in the same setting: the same measure for `O=C(O)c1c(O)c(=O)ccn1NC1c2ccccc2OCc2c1ccc(Cl)c2Cl` (stereo not shown) [Compound 99]: 1 to 10 µM.

`CCOC(=O)c1cn(NC2c3ccccc3COc3ccccc32)c(C(=O)OCC)c(O)c1=O` (stereo not shown) [Compound 104]: the EC50 is more than 100 µM. Same read-out and setting: the same measure for `O=C(O)c1c(O)c(=O)ccn1NC1c2ccccc2COc2cc(Cl)c(Cl)cc21` (stereo not shown) [Compound 60]: 10 to 100 µM. Turning to `O=C(O)c1c(O)c(=O)ccn1NC1c2cc(OC(F)(F)F)ccc2SCc2c1ccc(F)c2F` (stereo not shown) [Compound 116], the EC50 is 10 to 100 µM. As for `CNC(=O)c1c(O)c(=O)ccn1NC(c1ccccc1)c1ccccc1` [Compound 61], the EC50 is more than 100 µM.

For `O=C(O)c1c(O)c(=O)ccn1NC1c2ccccc2SCc2c1ccc(F)c2F` (stereo not shown) [Compound 40, 1-((7,8-difluoro-6,11-dihydrodibenzo[b,e]thiepin-11-yl)amino)-3-hydroxy-4-oxo-1,4-dihydropyridine-2-carboxylic acid], the EC50 was 1 to 10 µM. Turning to `O=C(Nc1cccc(O)c1)c1c(O)c(=O)ccn1NC1c2ccccc2COc2ccccc21` (stereo not shown) [Compound 19], the EC50 is more than 100 µM. Regarding `O=C(Nc1cccc(-c2ccccc2)c1)c1c(O)c(=O)ccn1NC1c2ccccc2COc2ccccc21` (stereo not shown) [Compound 30], the EC50 is more than 100 µM.

With `O=C(NO)c1c(O)c(=O)ccn1NC1c2ccccc2SCc2c1ccc(F)c2F` (stereo not shown) [Compound 129], the EC50 fell in the range of 1 to 10 µM. For the molecule `O=C(O)c1c(O)c(=O)ccn1NC(c1ccc(F)c(F)c1)c1ccc(F)c(F)c1` [Compound 105], the EC50 was more than 100 µM. With `O=C(NOCc1ccccc1)c1c(O)c(=O)ccn1NC1c2ccccc2SCc2c1ccc(F)c2F` (stereo not shown) [Compound 130, N-(benzyloxy)-1-((7,8-difluoro-6,11-dihydrodibenzo[b,e]thiepin-11-yl)amino)-3-hydroxy-4-oxo-1,4-dihydropyridine-2-carboxamide], the EC50 lay within 1 to 10 µM. The same measure, in the same setting: the same measure for `O=C(O)c1cn(NC2c3ccccc3SCc3c2ccc(F)c3F)cc(O)c1=O` (stereo not shown) [Compound 120]: 1 to 10 µM; for `CN(C1c2ccccc2COc2ccccc21)n1ccc(=O)c(O)c1` (stereo not shown) [Compound 28]: more than 100 µM.

On to `O=C(NCc1ccc(C(F)(F)F)cc1)c1c(O)c(=O)ccn1NC1c2ccccc2COc2ccccc21` (stereo not shown) [Compound 31], for which the EC50 was more than 100 µM. Same read-out and setting: the result for `CNC(=O)c1c(O)c(=O)ccn1NC1CCCN(Cc2ccccc2)c2ccccc21` (stereo not shown) [Compound 54] reads more than 100 µM; that for `CC(C)NC(=O)c1c(O)c(=O)ccn1N(C)C1c2ccccc2COc2ccccc21` (stereo not shown) [Compound 10], more than 100 µM; that for `O=c1ccn(N(Cc2ccccc2)C2c3ccccc3COc3ccccc32)cc1O` (stereo not shown) [Compound 27], more than 100 µM.

Turning to `O=C(O)c1c(O)c(=O)ccn1NC1c2ccc(-c3ccccc3)cc2SCc2c1ccc(F)c2F` (stereo not shown) [Compound 114], the EC50 was 10 to 100 µM. On the same count and under the same terms, the same measure for `O=C(O)c1c(O)c(=O)ccn1NC1c2ccccc2SCc2c1ccc(F)c2Br` (stereo not shown) [Compound 96]: 0.1 to 1 µM; for `O=C(O)c1c(O)c(=O)ccn1NC(c1ccccc1)c1ccccc1` [Compound 67]: more than 100 µM; for `CNC(=O)c1cn(NC2c3ccccc3COc3ccccc32)c(C(=O)NC)c(O)c1=O` (stereo not shown) [Compound 103]: more than 100 µM. Still for that read-out and setting: the same measure for `O=C(O)c1c(O)c(=O)ccn1NC1c2ccccc2OCc2c1ccc(F)c2F` (stereo not shown) [Compound 75]: 10 to 100 µM; for `CNC(=O)c1c(O)c(=O)ccn1NC1c2ccccc2SCc2c1ccc(F)c2F` (stereo not shown) [Compound 41]: more than 100 µM.

In the case of `NC(=O)c1c(O)c(=O)ccn1NC1c2ccccc2SCc2c1ccc(F)c2F` (stereo not shown) [Compound 127], the EC50 was 1 to 10 µM. Take `O=C(O)c1cn(NC2c3ccccc3COc3ccccc32)c(C(=O)O)c(O)c1=O` (stereo not shown) [Compound 109]: the EC50 is 10 to 100 µM. On the same count and under the same terms, the same measure for `O=C(Nc1ccc(O)cc1)c1c(O)c(=O)ccn1NC1c2ccccc2COc2ccccc21` (stereo not shown) [Compound 20]: more than 100 µM. Same read-out and setting: the same measure for `O=C(O)c1c(O)c(=O)ccn1NC1c2cc(F)c(F)cc2CSc2ccccc21` (stereo not shown) [Compound 95]: 1 to 10 µM. Still for that read-out and setting: the same measure for `CN(C(c1ccccc1)c1ccccc1)n1ccc(=O)c(O)c1` [Compound 39]: more than 100 µM. On to `CNC(=O)c1c(O)c(=O)ccn1NC1c2ccccc2COc2cc(Cl)c(Cl)cc21` (stereo not shown) [Compound 76, 1-((2,3-dichloro-6,11-dihydrodibenzo[b,e]oxepin-11-yl)amino)-3-hydroxy-N-methyl-4-oxo-1,4-dihydropyridine-2-carboxamide], for which the EC50 was more than 100 µM. The same measure, in the same setting: the result for `O=C(O)c1c(O)c(=O)ccn1NC1c2ccc(F)c(F)c2CSc2c(-c3ccccc3)cccc21` (stereo not shown) [Compound 121] reads more than 100 µM. Regarding `O=C(O)c1c(O)c(=O)ccn1NC1CCCOc2ccccc21` (stereo not shown) [Compound 1], the EC50 was in the range of 10 to 100 µM. Same read-out and setting: the same measure for `O=C(O)c1c(O)c(=O)ccn1NC1c2ccc(F)c(F)c2CSc2c(-c3ccc(F)cc3)cccc21` (stereo not shown) [Compound 122]: more than 100 µM; for `O=C(Nc1cccc(C(F)(F)F)c1)c1c(O)c(=O)ccn1CC1c2ccccc2COc2ccccc21` (stereo not shown) [Compound 48]: more than 100 µM; for `O=C(O)c1c(O)c(=O)ccn1NC1c2ccccc2SCc2c1cccc2N1CCCC1=O` (stereo not shown) [Compound 128]: 1 to 10 µM. For `O=C(NCc1cccc(-c2ccccc2)c1)c1c(O)c(=O)ccn1NC1c2ccccc2COc2ccccc21` (stereo not shown) [Compound 33], the EC50 was more than 100 µM. Same read-out and setting: the result for `O=C(Nc1ccc2ccccc2c1)c1c(O)c(=O)ccn1NC1c2ccccc2COc2ccccc21` (stereo not shown) [Compound 47] reads more than 100 µM. Same read-out and setting: the result for `O=C(O)c1c(O)c(=O)ccn1NC1c2ccccc2S(=O)(=O)Cc2c1ccc(F)c2F` (stereo not shown) [Compound 126] reads 10 to 100 µM; that for `O=C(O)c1c(O)c(=O)ccn1NC1c2ccc(F)c(F)c2CSc2c1ccc(F)c2F` (stereo not shown) [Compound 93], 1 to 10 µM. For the molecule `O=C(NCc1ccccc1)c1c(O)c(=O)ccn1CC1c2ccccc2COc2ccccc21` (stereo not shown) [Compound 51], the EC50 was more than 100 µM. For `CNC(=O)c1c(O)c(=O)ccn1NC1CCN(Cc2ccccc2)c2ccccc21` (stereo not shown) [Compound 44], the EC50 is more than 100 µM. As to `O=C(NCC(F)(F)F)c1c(O)c(=O)ccn1NC1c2ccccc2SCc2c1ccc(F)c2F` (stereo not shown) [Compound 42, 1-((7,8-difluoro-6,11-dihydrodibenzo[b,e]thiepin-11-yl)amino)-3-hydroxy-4-oxo-N-(2,2,2-trifluoroethyl)-1,4-dihydropyridine-2-carboxamide], the EC50 fell in the range of 1 to 10 µM. On the same count and under the same terms, the same measure for `O=C(O)c1c(O)c(=O)ccn1NC1c2ccccc2OCc2c(F)cccc21` (stereo not shown) [Compound 66]: 10 to 100 µM.

As for `CN(Cc1ccccc1)C(=O)c1c(O)c(=O)ccn1CC1c2ccccc2COc2ccccc21` (stereo not shown) [Compound 57], the EC50 was more than 100 µM. Still for that read-out and setting: the same measure for `O=C(NCCOCCO)c1c(O)c(=O)ccn1NC1CCCNc2ccccc21` (stereo not shown) [Compound 8]: more than 100 µM.

On to `O=C(O)c1c(O)c(=O)ccn1NC1c2cc(Cl)ccc2COc2ccc(Cl)cc21` (stereo not shown) [Compound 58, 1-((2,9-dichloro-6,11-dihydrodibenzo[b,e]oxepin-11-yl)amino)-3-hydroxy-4-oxo-1,4-dihydropyridine-2-carboxylic acid], for which the EC50 fell in the range of 10 to 100 µM. For the molecule `O=C(NCc1ccc(O)cc1)c1c(O)c(=O)ccn1NC1c2ccccc2COc2ccccc21` (stereo not shown) [Compound 32], the EC50 was more than 100 µM.

As to `O=C(O)c1c(O)c(=O)ccn1NC(c1cccc2ccccc12)c1cccc2ccccc12` [Compound 68], the EC50 is more than 100 µM. As for `CC(C)c1ccc2c(c1)C(Nn1ccc(=O)c(O)c1C(=O)O)c1ccc(F)c(F)c1CS2` (stereo not shown) [Compound 113], the EC50 was more than 100 µM.

For `O=C(O)c1c(O)c(=O)ccn1NC1c2ccccc2CSc2c1ccc(Cl)c2Cl` (stereo not shown) [Compound 87], the EC50 lay in the range of 1 to 10 µM. In the case of `CNC(=O)c1c(O)c(=O)ccn1NC(c1cccc2ccccc12)c1cccc2ccccc12` [Compound 69], the EC50 was more than 100 µM. For `O=C(O)c1c(O)c(=O)ccn1NC1c2ccc(-c3ccc(F)cc3)cc2SCc2c1ccc(F)c2F` (stereo not shown) [Compound 123], the EC50 is 10 to 100 µM. Same read-out and setting: the result for `O=C(O)c1c(O)c(=O)ccn1NC1c2ccc(C(F)(F)F)cc2COc2cc(C(F)(F)F)ccc21` (stereo not shown) [Compound 110] reads more than 100 µM; that for `O=C(O)c1c(O)c(=O)ccn1NC(c1ccccc1)c1ccc2ccccc2c1` (stereo not shown) [Compound 82], 10 to 100 µM. On to `O=C(NCc1ccc(-c2ccccc2)cc1)c1c(O)c(=O)ccn1NC1c2ccccc2COc2ccccc21` (stereo not shown) [Compound 23, N-(Biphenyl-4-ylmethyl)-1-(6,11-dihydrodibenzo[b,e]oxepin-11-ylamino)-3-hydroxy-4-oxo-1,4-dihydropyridine-2-carboxamide], for which the EC50 was in the range of 1 to 10 µM. On the same count and under the same terms, the same measure for `O=c1ccn(NC2CCOCc3ccccc32)cc1O` (stereo not shown) [Compound 12]: more than 100 µM.
